In PubChem BioAssay AID2060483 (Molecular Pharmacology Branch, DTP, NCI, 2025):
Each block holds one compound with its values, some of them ahead of it.

Test system: K24384-001-R-PDC complex spheroids, viability
Assay: Anticancer human tumor K24384-001-R-PDC patient-derived pancreatic adenocarcinoma cell line growth inhibition [GQUAD]
Conditions: for IC50: curve of first compound; for viability, T/C: stronger effect = lower value
Summary of the method: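 Tumor cells were grown as complex spheroids with HUVEC endothelial cells and mesenchymal stem cells as stroma. G-quadruplex stabilizers were combined with targeted agents over half-log dilutions from near the clinical Cmax, or from 10 microM.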

[1] = second compound 0.0316 µM, first compound 0.0316 µM
[2] = second compound 0.0316 µM, first compound 0.1 µM
[3] = second compound 0.0316 µM, first compound 0.316 µM
[4] = second compound 0.0316 µM, first compound 1 µM
[5] = second compound 0.0316 µM, first compound 3.16 µM
[6] = second compound 0.0316 µM, first compound 10 µM
[7] = second compound 0.1 µM, first compound 0.0316 µM
[8] = second compound 0.1 µM, first compound 0.1 µM
[9] = second compound 0.1 µM, first compound 0.316 µM
[10] = second compound 0.1 µM, first compound 1 µM
[11] = second compound 0.1 µM, first compound 3.16 µM
[12] = second compound 0.1 µM, first compound 10 µM
[13] = second compound 0.316 µM, first compound 0.0316 µM
[14] = second compound 0.316 µM, first compound 0.1 µM
[15] = second compound 0.316 µM, first compound 0.316 µM
[16] = second compound 0.316 µM, first compound 1 µM
[17] = second compound 0.316 µM, first compound 3.16 µM
[18] = second compound 0.316 µM, first compound 10 µM
[19] = second compound 1 µM, first compound 0.0316 µM
[20] = second compound 1 µM, first compound 0.1 µM
[21] = second compound 1 µM, first compound 0.316 µM
[22] = second compound 1 µM, first compound 1 µM
[23] = second compound 1 µM, first compound 3.16 µM
[24] = second compound 1 µM, first compound 10 µM
[25] = second compound 3.16 µM, first compound 0.0316 µM
[26] = second compound 3.16 µM, first compound 0.1 µM
[27] = second compound 3.16 µM, first compound 0.316 µM
[28] = second compound 3.16 µM, first compound 1 µM
[29] = second compound 3.16 µM, first compound 3.16 µM
[30] = second compound 3.16 µM, first compound 10 µM
[31] = second compound 10 µM, first compound 0.0316 µM
[32] = second compound 10 µM, first compound 0.1 µM
[33] = second compound 10 µM, first compound 0.316 µM
[34] = second compound 10 µM, first compound 1 µM
[35] = second compound 10 µM, first compound 3.16 µM
[36] = second compound 10 µM, first compound 10 µM
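Note: spheroids exposed to compounds for seven days.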

SMILES: COc1ccc([C@@H](O)c2cc(-c3ncnc4cc(N5CCOCC5)ccc34)c(F)cc2Cl)nn1 + Cc1[nH]c2ccc(F)cc2c1-c1nc2c3cccnc3c3ncccc3c2[nH]1
IC50 (second compound 0.0316 µM): 2990 nM | IC50 (second compound 0.1 µM): 2480 nM | IC50 (second compound 0.316 µM): 4280 nM | IC50 (second compound 1 µM): 3380 nM | IC50 (second compound 3.16 µM): 2100 nM | IC50 (second compound 10 µM): 1690 nM | viability, T/C [1]: 100% | viability, T/C [2]: 89.6% | viability, T/C [3]: 68.3% | viability, T/C [4]: 64.6% | viability, T/C [5]: 49.1% | viability, T/C [6]: 38.6% | viability, T/C [7]: 79.7% | viability, T/C [8]: 95.4% | viability, T/C [9]: 92.7% | viability, T/C [10]: 73% | viability, T/C [11]: 44.5% | viability, T/C [12]: 31.9% | viability, T/C [13]: 101% | viability, T/C [14]: 115% | viability, T/C [15]: 99.4% | viability, T/C [16]: 66.8% | viability, T/C [17]: 65.1% | viability, T/C [18]: 28.4% | viability, T/C [19]: 81.7% | viability, T/C [20]: 99.5% | viability, T/C [21]: 83.9% | viability, T/C [22]: 67.1% | viability, T/C [23]: 54.1% | viability, T/C [24]: 30.3% | viability, T/C [25]: 87.9% | viability, T/C [26]: 76.8% | viability, T/C [27]: 58% | viability, T/C [28]: 73.5% | viability, T/C [29]: 41.7% | viability, T/C [30]: 19.3% | viability, T/C [31]: 48.7% | viability, T/C [32]: 85.9% | viability, T/C [33]: 58.9% | viability, T/C [34]: 66.3% | viability, T/C [35]: 32.3% | viability, T/C [36]: 15.8%

SMILES: O=C(c1cc(Cc2n[nH]c(=O)c3ccccc23)ccc1F)N1CCN(C(=O)C2CC2)CC1 + Cc1[nH]c2ccc(F)cc2c1-c1nc2c3cccnc3c3ncccc3c2[nH]1
IC50 (second compound 0.0316 µM): > 10000 nM | IC50 (second compound 0.1 µM): > 10000 nM | IC50 (second compound 0.316 µM): > 10000 nM | IC50 (second compound 1 µM): > 10000 nM | IC50 (second compound 3.16 µM): > 10000 nM | IC50 (second compound 10 µM): > 10000 nM | viability, T/C [1]: 101% | viability, T/C [2]: 94% | viability, T/C [3]: 99.6% | viability, T/C [4]: 94.3% | viability, T/C [5]: 84.4% | viability, T/C [6]: 93.1% | viability, T/C [7]: 103% | viability, T/C [8]: 104% | viability, T/C [9]: 147% | viability, T/C [10]: 98.7% | viability, T/C [11]: 89.8% | viability, T/C [12]: 83.9% | viability, T/C [13]: 96.8% | viability, T/C [14]: 97.4% | viability, T/C [15]: 95.7% | viability, T/C [16]: 85.7% | viability, T/C [17]: 82.3% | viability, T/C [18]: 91.1% | viability, T/C [19]: 78.1% | viability, T/C [20]: 88% | viability, T/C [21]: 90.5% | viability, T/C [22]: 87.5% | viability, T/C [23]: 89% | viability, T/C [24]: 69.7% | viability, T/C [25]: 82.9% | viability, T/C [26]: 78.1% | viability, T/C [27]: 64.3% | viability, T/C [28]: 77.9% | viability, T/C [29]: 82% | viability, T/C [30]: 67.3% | viability, T/C [31]: 69.7% | viability, T/C [32]: 70.7% | viability, T/C [33]: 62.5% | viability, T/C [34]: 69% | viability, T/C [35]: 74.5% | viability, T/C [36]: 56.1%

IC50 (second compound 0.0316 µM): > 316 nM | IC50 (second compound 0.1 µM): > 316 nM | IC50 (second compound 0.316 µM): > 316 nM | IC50 (second compound 1 µM): < 0.999 nM | IC50 (second compound 3.16 µM): < 0.999 nM | IC50 (second compound 10 µM): < 0.999 nM
SMILES: Cn1ncnc1[C@H]1c2n[nH]c(=O)c3cc(F)cc(c23)N[C@@H]1c1ccc(F)cc1 + Cc1cnc(CNC(=O)c2c(=O)c3ccc(N4CCCN(C)CC4)nc3n3c2sc2ccccc23)cn1
viability, T/C (second compound 0.0316 µM, first compound 0.000999 µM): 93.1% | viability, T/C (second compound 0.0316 µM, first compound 0.00316 µM): 80.8% | viability, T/C (second compound 0.0316 µM, first compound 0.00999 µM): 92.5% | viability, T/C [1]: 81.9% | viability, T/C (second compound 0.0316 µM, first compound 0.0999 µM): 87.2% | viability, T/C [3]: 105% | viability, T/C (second compound 0.1 µM, first compound 0.000999 µM): 69.1% | viability, T/C (second compound 0.1 µM, first compound 0.00316 µM): 76% | viability, T/C (second compound 0.1 µM, first compound 0.00999 µM): 53.6% | viability, T/C [7]: 68.6% | viability, T/C (second compound 0.1 µM, first compound 0.0999 µM): 72.8% | viability, T/C [9]: 86.9% | viability, T/C (second compound 0.316 µM, first compound 0.000999 µM): 52.5% | viability, T/C (second compound 0.316 µM, first compound 0.00316 µM): 63.1% | viability, T/C (second compound 0.316 µM, first compound 0.00999 µM): 50.6% | viability, T/C [13]: 50.5% | viability, T/C (second compound 0.316 µM, first compound 0.0999 µM): 53.5% | viability, T/C [15]: 58.1% | viability, T/C (second compound 1 µM, first compound 0.000999 µM): 44.6% | viability, T/C (second compound 1 µM, first compound 0.00316 µM): 50.3% | viability, T/C (second compound 1 µM, first compound 0.00999 µM): 43.6% | viability, T/C [19]: 48.6% | viability, T/C (second compound 1 µM, first compound 0.0999 µM): 62.6% | viability, T/C [21]: 42% | viability, T/C (second compound 3.16 µM, first compound 0.000999 µM): 43.4% | viability, T/C (second compound 3.16 µM, first compound 0.00316 µM): 45.2% | viability, T/C (second compound 3.16 µM, first compound 0.00999 µM): 43.5% | viability, T/C [25]: 44.7% | viability, T/C (second compound 3.16 µM, first compound 0.0999 µM): 47.8% | viability, T/C [27]: 39% | viability, T/C (second compound 10 µM, first compound 0.000999 µM): 42.8% | viability, T/C (second compound 10 µM, first compound 0.00316 µM): 40.2% | viability, T/C (second compound 10 µM, first compound 0.00999 µM): 37.7% | viability, T/C [31]: 46.3% | viability, T/C (second compound 10 µM, first compound 0.0999 µM): 26.6% | viability, T/C [33]: 32.8%
